From US20140206657A1, “BILE ACID ANALOG TGR5 AGONISTS” (City of Hope, priority 2013, published 2014)

How the values were obtained:
human TGR5 = target: T1, human TGR5 (Homo sapiens, UniProt Q8TDU6); test: cAMP assay, HEK293 cells stably expressing human TGR5; format: cell-based
T1 construct: expressed in transfected cells
T1 sequence (Q8TDU6 1-330): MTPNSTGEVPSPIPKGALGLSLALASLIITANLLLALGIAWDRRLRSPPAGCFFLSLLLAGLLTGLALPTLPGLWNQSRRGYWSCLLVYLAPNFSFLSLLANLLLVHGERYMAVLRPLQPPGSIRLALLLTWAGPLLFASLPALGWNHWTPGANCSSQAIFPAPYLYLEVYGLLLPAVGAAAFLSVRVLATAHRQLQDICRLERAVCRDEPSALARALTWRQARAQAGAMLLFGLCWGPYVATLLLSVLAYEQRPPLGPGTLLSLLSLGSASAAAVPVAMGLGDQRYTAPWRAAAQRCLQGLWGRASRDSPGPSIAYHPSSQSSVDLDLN
Method: The changes in cAMP elicited by these bile acid derivatives was determined after binding to the TGR5. […] HEK293 cells stably expressing human TGR5 were treated with increasing doses of ligand after 6 hours of stimulation, and intracellular cAMP levels were measured by luminescence. […] Data analysis to determine EC50 values was performed with GraphPad Prism software using a cAMP standard curve and sigmoidal dose-response (variable slope) equation based on dose-response curves with tested compounds.

EC50 (human TGR5) [nM]	Compound	other results
	CC[C@H]1C[C@@H]2[C@H](CC[C@]3(C)[C@@H]([C@H](C)C[C@H](C)C(=O)O)CC[C@@H]23)[C@@]2(C)CC[C@@H](O)C[C@@H]12	melting point: 137.7 °C
210	C[C@H](C[C@H](C)C(=O)O)[C@H]1CC[C@H]2[C@@H]3CC[C@@H]4C[C@H](O)CC[C@]4(C)[C@H]3CC[C@]12C [compound 13, 23(S)-Methyl-3α-hydroxy-5β-cholan-24-oic acid]	
710	CC[C@H]1[C@H](O)[C@@H]2[C@H](CC[C@]3(C)[C@@H]([C@H](C)C[C@H](C)C(=O)O)CC[C@@H]23)[C@@]2(C)CC[C@@H](O)C[C@@H]12 [compound 24, 3α,7β-Dihydroxy-23(S)-methyl-6α-ethyl-5β-cholan-24-oic acid]	
	CC[C@@]1(O)CC[C@@]2(C)[C@H](CC[C@@H]3[C@@H]2CC[C@]2(C)[C@@H]([C@H](C)CCC(=O)O)CC[C@@H]32)C1 [compound 26, 3β-Ethyl-3α-hydroxy-LCA]	TGR5 activity / potency, in words (SAR statements) (human TGR5; assay not named in b266 and b269, b275 belongs to the cAMP example): large loss in potency
